Data taken from PMC9822135, “Chemical Constituents from the Leaves of Ligustrum robustum and Their Bioactivities” (Molecules, 2023).
Where two headings read alike, the source gives them in different places.

Assays:
[1] = ABTS radical scavenging assay; conditions: mean ± SD (n = 3)
[2] = system: α-amylase; test: α-amylase inhibitory activity assay (starch, DNS reagent); format: biochemical; conditions: mean ± SD (n = 3)
Method: S1.3. Determination of α-amylase inhibitory activity
Phosphate buffer (20 mM, pH 6.9, containing 6 mM NaCl) was used as the […]
µL, 1%, w/v) were mixed and incubated in a 96-well microplate at 37 °C for 10 min.
Then, α-amylase solution (50 µL, 0.2 U/mL) was added and the compound was incubated at 37 °C for an additional 10 min. The reaction was stopped by addition of […]
microplate was immediately heated in 95 °C water bath for 10 min. When the reaction solution cooled to room temperature, allsamples were diluted by adding distilled water (50 µL), and then their absorbance was measured using a microplate reader at […]
starch solution) at 540 nm, thus the inhibitory activity was calculated as (Acontrol-Asample)/Acontrol×100%, in which Asample was the absorbance of the sample and Acontrol was the absorbance of the phosphate buffer control without test samples. Acarbose was used as the positive control.

[3] = molecular target: fatty acid synthase (FAS) (Gallus gallus, UniProt P12276); test: FAS inhibitory activity assay (NADPH absorbance at 340 nm)
Method: Determination of FAS inhibitory activity
diluted with potassium phosphate buffer (0.1 M, pH 7.0). Sample solution (100 L, 20-2000 μM, 37 °C) and FAS substrates (1.8 mL, 37 °C) were mixed in a cuvette, and then FAS solution (100 L, 37 °C, isolated from chicken liver and kept in ice-bath before use) was added. The absorbance of reaction compound was monitored by a
UV-vis spectrophotometer at 340 nm in 1 min. The inhibitory effect was calculated by the following equation: FAS inhibition (%) = (Acontrol- Asample)/Acontrol×100%, where Acontrolrepresented the FAS activity in the control group (phosphate buffer instead of sample solution), Asamplerepresented the FAS activity in the sample groups. The FAS activity was calculated as (A0 - A1)/1 min, in which A0 was the absorbance of the
reaction compound when the FAS was added, and A1 was the absorbance of the
reaction compound after reaction 1 min. Orlistat was used as the positive control.
FAS substrates: 0.1 M potassium phosphate buffer (pH 7.0), 1 mM ethylene-diaminetetraacetic acid (EDTA), 1 mM dithiothreitol, 3 M acetyl-coenzyme A, 10 M methylmalonyl coenzyme A, 35 M NADPH.

[4] = DPPH radical scavenging assay; conditions: mean ± SD (n = 3), NA = no activity
Method: S1.4. DPPH radical scavenging assay
The DPPH radical scavenging assay was used to evaluate the antioxidant activity of compounds 1-10. In a 96-well microplate, 100 µL of DPPH solution (200 µM in ethanol) was added to 100 µL sample in ethanol at graded concentrations ranging from 7 to 500 µM. The compound was incubated in the dark at room temperature for […]

[5] = system: α-glucosidase; test: α-glucosidase inhibitory activity assay (pNPG substrate); format: biochemical, yeast; conditions: for α-Glucosidase Inhibition at 0.1 mM: mean ± SD (n = 3), NA = no activity; for α-glucosidase inhibitory activity (in words): compared with positive control acarbose
Method: S1. Determination of bioactivities […]
S1.2. Determination of α-glucosidase inhibitory activity […]
diluted with phosphate buffer (0.1 M, pH 6.8). […]
and 4-nitrophenyl α-D-glucopyranoside (pNPG) solution (50 µL, 5 mM) were mixed
(1 picture or pasted object on this page, not shown here) […]
and incubated in a 96-well microplate at37 °C for 5 min. α-Glucosidase from yeast (50 µL, 0.2 U/mL) was added and incubated at 37 °C for another 30 min. Finally, 50 µL of Na2CO3 (1M) was added to terminate the reaction. The absorbance of compound was measured using a microplate reader at a wavelength 405 nm. The background absorbance (phosphate buffer instead of substrate pNPG) of all samples […]
calculated by the following equation: α-glucosidase inhibition (%) = (Acontrol-Asample)/Acontrol×100%, where Acontrolrepresented the absorbance of phosphate buffer control without testsamples, Asample represented the absorbance of test samples.
Acarbose was used as the positive control. […]

Chain of fatty acid synthase (FAS) (P12276 2-2512 limits assumed): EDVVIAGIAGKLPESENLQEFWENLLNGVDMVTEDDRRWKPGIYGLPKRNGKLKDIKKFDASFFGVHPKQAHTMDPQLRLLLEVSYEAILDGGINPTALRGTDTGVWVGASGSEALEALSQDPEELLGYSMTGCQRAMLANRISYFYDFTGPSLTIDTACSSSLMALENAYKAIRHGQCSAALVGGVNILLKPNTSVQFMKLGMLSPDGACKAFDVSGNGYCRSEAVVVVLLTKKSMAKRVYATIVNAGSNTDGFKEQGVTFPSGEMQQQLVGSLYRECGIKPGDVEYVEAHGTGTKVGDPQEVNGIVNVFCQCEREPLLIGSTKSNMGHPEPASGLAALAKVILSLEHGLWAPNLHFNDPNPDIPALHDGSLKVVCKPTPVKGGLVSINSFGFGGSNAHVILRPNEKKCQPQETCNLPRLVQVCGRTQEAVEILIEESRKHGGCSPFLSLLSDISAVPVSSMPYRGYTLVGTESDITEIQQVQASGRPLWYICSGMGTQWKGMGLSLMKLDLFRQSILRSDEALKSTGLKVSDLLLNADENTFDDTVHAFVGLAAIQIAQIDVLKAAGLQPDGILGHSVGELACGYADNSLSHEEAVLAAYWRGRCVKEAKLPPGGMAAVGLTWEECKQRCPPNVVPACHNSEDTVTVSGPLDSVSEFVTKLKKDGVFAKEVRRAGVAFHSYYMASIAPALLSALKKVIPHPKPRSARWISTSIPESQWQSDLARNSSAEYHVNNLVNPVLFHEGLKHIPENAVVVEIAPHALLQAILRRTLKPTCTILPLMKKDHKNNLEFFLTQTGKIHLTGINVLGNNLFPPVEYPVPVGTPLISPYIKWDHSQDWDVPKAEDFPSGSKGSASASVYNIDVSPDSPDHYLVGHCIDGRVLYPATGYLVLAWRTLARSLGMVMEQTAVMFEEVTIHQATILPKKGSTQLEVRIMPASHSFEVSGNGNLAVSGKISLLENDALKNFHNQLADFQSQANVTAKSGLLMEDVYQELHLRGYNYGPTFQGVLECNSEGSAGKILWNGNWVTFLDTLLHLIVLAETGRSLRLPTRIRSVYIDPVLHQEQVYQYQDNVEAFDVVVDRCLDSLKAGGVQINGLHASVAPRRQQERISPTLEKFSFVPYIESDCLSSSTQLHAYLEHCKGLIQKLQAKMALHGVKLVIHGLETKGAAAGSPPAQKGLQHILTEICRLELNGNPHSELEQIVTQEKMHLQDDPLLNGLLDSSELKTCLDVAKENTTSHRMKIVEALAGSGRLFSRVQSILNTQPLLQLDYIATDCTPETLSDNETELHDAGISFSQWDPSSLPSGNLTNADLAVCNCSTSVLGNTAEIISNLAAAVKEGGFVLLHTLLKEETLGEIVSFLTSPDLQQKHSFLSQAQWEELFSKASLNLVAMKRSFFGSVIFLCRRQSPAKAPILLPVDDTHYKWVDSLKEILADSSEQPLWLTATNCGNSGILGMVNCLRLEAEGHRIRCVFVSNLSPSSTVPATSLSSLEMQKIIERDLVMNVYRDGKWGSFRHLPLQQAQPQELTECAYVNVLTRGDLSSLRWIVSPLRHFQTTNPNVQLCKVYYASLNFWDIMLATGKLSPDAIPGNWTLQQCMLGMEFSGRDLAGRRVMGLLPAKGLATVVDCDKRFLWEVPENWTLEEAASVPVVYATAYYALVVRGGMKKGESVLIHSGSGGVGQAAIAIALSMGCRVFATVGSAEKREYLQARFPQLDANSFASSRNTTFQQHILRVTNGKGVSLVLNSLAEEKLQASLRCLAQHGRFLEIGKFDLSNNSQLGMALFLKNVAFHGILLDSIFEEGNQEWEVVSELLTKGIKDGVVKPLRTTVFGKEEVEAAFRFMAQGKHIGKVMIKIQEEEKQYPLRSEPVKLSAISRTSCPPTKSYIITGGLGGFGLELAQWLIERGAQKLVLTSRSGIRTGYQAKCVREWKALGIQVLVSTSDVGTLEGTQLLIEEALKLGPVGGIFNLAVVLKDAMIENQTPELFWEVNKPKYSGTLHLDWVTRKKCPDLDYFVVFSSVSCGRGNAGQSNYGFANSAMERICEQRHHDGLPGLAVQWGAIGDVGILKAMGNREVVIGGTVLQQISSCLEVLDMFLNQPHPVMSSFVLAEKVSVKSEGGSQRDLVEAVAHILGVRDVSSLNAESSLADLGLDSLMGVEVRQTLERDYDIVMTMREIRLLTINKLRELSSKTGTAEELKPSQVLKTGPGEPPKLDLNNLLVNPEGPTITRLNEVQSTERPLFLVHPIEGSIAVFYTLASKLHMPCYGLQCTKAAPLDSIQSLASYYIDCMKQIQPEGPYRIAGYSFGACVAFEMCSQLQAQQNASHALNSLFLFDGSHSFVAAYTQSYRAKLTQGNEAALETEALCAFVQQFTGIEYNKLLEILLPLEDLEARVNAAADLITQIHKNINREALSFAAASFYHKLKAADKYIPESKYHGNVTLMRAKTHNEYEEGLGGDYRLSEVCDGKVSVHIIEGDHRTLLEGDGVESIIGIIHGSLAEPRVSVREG

SMILES	IC50 [1] [µM]	α-Amylase Inhibition at 0.1 mM [2]	IC50 ([3]; read-out: FAS IC50, mean ± SD (n = 3), NA = no activity, FAS isolated from chicken liver) [µM]	IC50 [3] [µM]	IC50 [4] [µM]	α-Glucosidase Inhibition at 0.1 mM [5]	α-glucosidase inhibitory activity (in words) [5]
CC/C=C/CCO[C@@H]1O[C@H](COC(=O)C=Cc2ccc(O)cc2)[C@@H](O)[C@H](O[C@@H]2O[C@@H](C)[C@H](O)[C@@H](O)[C@H]2O)[C@H]1O [Compound 1]	5.65 ± 0.19	27.9 ± 6.4 bc %					
C=C(C)CO[C@@H]1O[C@H](COC(=O)C=Cc2ccc(O)cc2)[C@@H](O)[C@H](O[C@@H]2O[C@@H](C)[C@H](O)[C@@H](O)[C@H]2O)[C@H]1O [Compound 2]	103 ± 4	24.0 ± 1.5 bc %	4.1 ± 0.12				
C[C@@H]1O[C@@H](O[C@H]2[C@H](O)[C@@H](COC(=O)C=Cc3ccc(O)cc3)OC(O)[C@@H]2O)[C@H](O)[C@H](O)[C@H]1O (some centres unmarked) [Compound 3]	12.04 ± 0.08	29.8 ± 1.8 bc %		6.25 ± 0.2	> 250		
CC1OC(OC2C(O)C(O)OC(CO)C2OC(=O)C=Cc2ccc(O)cc2)C(O)C(O)C1O (centres unmarked) [Compound 4]	11.2 ± 0.4	25.6 ± 1.0 bc %		10.5 ± 0.32			
C[C@@H]1O[C@@H](O[C@@H]2[C@@H](O)[C@@H](O)[C@H](O[C@H]3[C@H](O)[C@@H](COC(=O)C=Cc4ccc(O)cc4)OC(O)[C@@H]3O)O[C@H]2C)[C@H](O)[C@H](O)[C@H]1O (some centres unmarked) [Compound 5]	15.5 ± 0.36	26.5 ± 4.0 bc %		9.75 ± 0.24	> 250		
C[C@@H]1O[C@@H](O[C@H]2[C@H](OC(=O)/C=C/c3ccc(O)c(O)c3)[C@@H](CO)OC(O)[C@@H]2O)[C@H](O)[C@H](O)[C@H]1O (stereo partly drawn) [Compound 6, 3-O-(α-L-rhamnopyranosyl)-4-O-(trans-caffeoyl)-D-glucopyranose]	17 ± 0.45	23.0 ± 0.7 c %			46.7 ± 1.58		
O=c1c(O[C@@H]2O[C@H](CO)[C@@H](O)[C@H](O)[C@H]2O)c(-c2ccc(O)cc2)oc2cc(O[C@@H]3O[C@H](CO)[C@@H](O)[C@H](O)[C@H]3O)cc(O)c12 [Compound 7, kaempferol 3,7-diglucoside]	9.34 ± 0.04	31.8 ± 0.5 b %		8.1 ± 0.37		15.6 ± 0.9 c %	moderate and weaker than acarbose
COc1cc([C@H]2c3cc(O[C@@H]4O[C@H](CO)[C@@H](O)[C@H](O)[C@H]4O)c(OC)cc3C[C@@](O)(CO)[C@@H]2CO)ccc1O [Compound 8, (+)-cycloolivil 6-O-β-D-glucopyranoside]	29.1 ± 1.11	28.5 ± 2.7 bc %		8.01 ± 0.26	> 250		
COC(=O)C=Cc1ccc(O)cc1 [Compound 9]	8.78 ± 0.09	29.5 ± 0.6 bc %		15.4 ± 0.42	> 250	33.8 ± 2.9 b %	moderate and weaker than acarbose
OCCc1ccc(O)cc1 [Compound 10, 4-hydroxyphenylethanol]	3.41 ± 0.08	16.2 ± 5.0 d %					
O=C1O[C@H]([C@@H](O)CO)C(O)=C1O [L-(+)-ascorbic acid, reference compound]	10.1 ± 0.19				13.66 ± 0.13		
